# Assay results: patent US8563562B2, “Compounds having antiviral properties” (priority 2008, dated 2013)
# How the values were obtained:
# Assay type in all cases: cell-based
# [1] = tested on: HIV variant T125K/F121Y integrase; experiment: PhenoScreen (Phenosense) assay, single-round luciferase pseudotyped HIV; details: for EC50: Human immunodeficiency virus 1, read-out: Activity, Phenosense assay, T125K F121Y
# Description: (§1) Monogram Bioscience' PhenoScreen assay allows the evaluation of integrase inhibitors for activity against a variety of HIV variants. The assay uses virus generated from 2 DNA constructs; one containing the HIV LTR, gag and pol regions, as well as a luciferase reporter gene in place of the viral envelope genes, and a second DNA construct containing the amphotrophic murine leukemia virus (A-MLV) envelope gene required to pseudotype virions and render them capable of entry into a target cell. Viruses generated using these constructs by transfection into a producer cell line such as 293T are capable of one-round of infection only. Successful integration events are directly proportional to the levels of luciferase expression 48 h after infection.
# (§2) The viral variants chosen by the present inventors to screen integration inhibitors consist of mutations within the viral integrase enzyme known to confer resistance to a number of known integration inhibitors published in the literature. In particular, the viral variants containing the Q148H/G140S double mutation in integrase, and the N155H/E92Q double mutation in integrase, represent two of the more common viruses identified to arise in patients that are failing treatment with Isentress (Raltegravir, MK-0518).
# [2] = tested on: HIV variant E92Q/N155H integrase; experiment: as above; details: for EC50: Human immunodeficiency virus 1, read-out: Activity, Phenosense assay, E92Q/N155H
# Description: as §1, §2
# [3] = tested on: HIV variant T661/S153Y integrase; experiment: as above; details: Human immunodeficiency virus 1, read-out: Activity, Phenosense assay, T661 S153Y
# Description: as §1, §2
# [4] = tested on: HIV variant G140S/Q148H integrase; experiment: as above; details: Human immunodeficiency virus 1, read-out: Activity, Phenosense assay, G140S Q148H
# Description: as §1, §2
# HIV WT integrase = experiment: as above; details: Human immunodeficiency virus 1, read-out: Activity, Phenosense assay, WT
# Description: as §1, §2
# [5] = tested on: HIV variant Y143R integrase; experiment: as above; details: for EC50: Human immunodeficiency virus 1, read-out: Activity, Phenosense assay, Y143R
# Description: as §1, §2
# [6] = tested on: HIV-1 reporter virus, Q148H/G140S (QHGS) integrase; experiment: Luciferase reporter virus infectivity assay in 293T cells; details: Human immunodeficiency virus 1, HEK-293T, 48 h, read-out: Luciferase assay EC50, QHGS
# Description: (§3) Infectivity assays using reporter viruses derived from lentiviral vectors capable of a single round of infection were used to determine the activity (EC50) of compounds. The DNA used to generate viruses for infection was the full-length HIV-1 genome which had been envelope-deleted. In addition, a reporter gene (the firefly luciferase gene from Photinus pyralis) was cloned into the nef region of the HIV backbone for ease of assay readout. […]. Culture supernatants containing VSV-G pseudotyped virions were harvested 64 h post transfection, clarified by centrifugation to remove cell debris, and frozen at −70° C. until use.
# (§4) HIV integrase was mutated within a shuttle vector (pGEM) containing the majority of the HIV-1 gag and pol sequence using site-directed mutagenesis to generate sequences that are known to confer resistance to published integrase inhibitors. These include but are not limited to mutations such as Q148H/G140S (in table #QHGS), N155H/E92Q (in table #NHEQ), F121Y/T124K (in table FYTK), Y143R (in table #Y143R) and the triple mutant Q148K/G140A/E138A. (in table#QKGAEA). The mutated integrase coding region within the shuttle vector was sequence verified, and then exchanged for the wild-type (WT) coding sequence in the reporter virus DNA backbone.
# (§5) 293T cells were plated out at 12000 cells per well in CellView 96-well cell culture plates (Invitrogen) 16 h prior to compound addition. Compounds were preincubated with cells for 4 h at 37° C. prior to the addition of virus sufficient to generate approximately 10000 Luciferase light units (as measured by the Victor Wallace luminometer) upon assaying using the Bright-Glo™ reagent (Promega) according to the manufacturer's instructions at 48 h post infection.
# [7] = tested on: HIV-1 reporter virus, N155H/E92Q (NHEQ) integrase; experiment: as above; details: Human immunodeficiency virus 1, HEK-293T, 48 h, read-out: Luciferase assay EC50, NHEQ
# Description: as §3, §4, §5
# [8] = tested on: HIV-1 reporter virus, wild-type (WT) integrase; experiment: as above; details: Human immunodeficiency virus 1, HEK-293T, 48 h, read-out: Luciferase assay EC50, WT
# Description: as §3, §4, §5
# [9] = tested on: HIV-1 reporter virus, Q148K/G140A/E138A (QKGAEA) integrase; experiment: as above; details: Human immunodeficiency virus 1, HEK-293T, 48 h, read-out: Luciferase assay EC50, QKGAEA
# Description: as §3, §4, §5
# [10] = tested on: HIV-1 reporter virus, Y143R integrase; experiment: as above; details: Human immunodeficiency virus 1, HEK-293T, 48 h, read-out: Luciferase assay EC50, Y143R
# Description: as §3, §4, §5
# [11] = tested on: HIV-1 reporter virus, F121Y/T124K (FYTK) integrase; experiment: as above; details: Human immunodeficiency virus 1, HEK-293T, 48 h, read-out: Luciferase assay EC50, FYTK
# Description: as §3, §4, §5
Compound,EC50 [1] [µM],"improvement in activity over comparative example 3, T125K F121Y ([1]; footnote a, T125K/F121Y mutant)",EC50 [2] [µM],"improvement in activity over comparative example 3, E92Q/N155H ([2]; footnote b, E92Q/N155H mutant)",EC50 [3] [µM],EC50 [4] [µM],EC50 (HIV WT integrase) [µM],EC50 [5] [µM],"improvement in activity over comparative example 3, Y143R ([5]; footnote a, Y143R mutant)",EC50 [6] [µM],EC50 [7] [µM],EC50 [8] [µM],EC50 [9] [µM],EC50 [10] [µM],EC50 [11] [µM]
"O=c1c(O)c(-c2ncc(Cc3ccc(F)cc3)o2)nc2c(I)cc(N3CCOCC3)cn12 [Example 4, 2-[5-(4-fluoro-benzyl)-oxazol-2-yl]-3-hydroxy-9-iodo-7-morpholin-4-yl-pyrido[1,2-a]pyrimidin-4-one]",0.001 to 0.1,a 2.5-fold improvement in activity over comparative example 3,0.001 to 0.1,b 2-fold improvement in activity over comparative example 3,0.001 to 0.1,> 10,0.001 to 0.1,0.001 to 0.1,a 2.5-fold improvement in activity over comparative example 3,–,–,–,–,–,–
"O=c1c(O)c(-c2ncc(Cc3ccc(F)cc3)o2)nc2ccc(N3CCOCC3)cn12 [Example 7, 2-[5-(4-fluoro-benzyl)-oxazol-2-yl]-3-hydroxy-7-morpholin-4-yl-pyrido[1,2-a]pyrimidin-4-one]",0.1 to 1,–,0.1 to 1,–,0.001 to 0.1,1 to 10,0.001 to 0.1,0.001 to 0.1,–,–,–,–,–,–,–
"O=c1c(O)c(-c2ncc(Cc3ccc(F)cc3)s2)nc2ccc(N3CCOCC3)cn12 [Example 41, 2-[5-(4-Fluoro-benzyl)-thiazol-2-yl]-3-hydroxy-7-morpholin-4-yl-pyrido[1,2-a]pyrimidin-4-one]",0.001 to 0.1,–,0.1 to 1,–,0.001 to 0.1,0.1 to 1,0.001 to 0.1,0.001 to 0.1,–,> 1,0.001 to 0.1,0.001 to 0.1,> 1,–,–
"O=c1c(O)c(-c2ncc(Cc3ccc(Cl)c(Cl)c3)s2)nc2ccc(N3CCOCC3)cn12 [Example 42, 2-[5-(3,4-Dichloro-benzyl)-thiazol-2-yl]-3-hydroxy-7-morpholin-4-yl-pyrido[1,2-a]pyrimidin-4-one]",0.1 to 1,–,0.1 to 1,–,0.1 to 1,1 to 10,0.1 to 1,0.1 to 1,–,–,–,–,–,–,–
"O=c1c(O)c(-c2ncc(Cc3ccc(F)cc3)[nH]2)nc2ccc(N3CCOCC3)cn12 [Example 45, 5-(4-Fluoro-benzyl)-2-(3-hydroxy-7-morpholin-4-yl-4-oxo-4H-pyrido[1,2-a]pyrimidin-2-yl)-1H-imidazol-1-ium chloride]",–,–,–,–,–,–,–,–,–,0.1 to 1,0.1 to 1,0.001 to 0.1,0.1 to 1,0.1 to 1,0.1 to 1
"CN1CCN(c2cc(N3CCOCC3)cn3c(=O)c(O)c(-c4ncc(Cc5ccc(F)cc5)s4)nc23)S1(=O)=O [Example 99, 2-[5-(4-Fluoro-benzyl)-thiazol-2-yl]-3-hydroxy-9-(5-methyl-1,1-dioxo-1l6-[1,2,5]thiadiazolidin-2-yl)-7-morpholin-4-yl-pyrido[1,2-a]pyrimidin-4-one]",–,–,–,–,–,–,–,–,–,0.001 to 0.1,0.001 to 0.1,0.001 to 0.1,0.1 to 1,0.001 to 0.1,0.001 to 0.1
"CN1CCN(c2cc(N3CCOCC3)cn3c(=O)c(O)c(-c4ncc(Cc5ccc(F)cc5)s4)nc23)C1=O [Example 101, 2-[5-(4-Fluoro-benzyl)-thiazol-2-yl]-3-hydroxy-9-(3-methyl-2-oxo-imidazolidin-1-yl)-7-morpholin-4-yl-pyrido[1,2-a]pyrimidin-4-one]",–,–,–,–,–,–,–,–,–,0.001 to 0.1,0.001 to 0.1,0.001 to 0.1,0.1 to 1,0.001 to 0.1,0.001 to 0.1
"O=C1OCCN1c1cc(N2CCOCC2)cn2c(=O)c(O)c(-c3ncc(Cc4ccc(F)cc4)s3)nc12 [Example 103, 2-[5-(4-Fluoro-benzyl)-thiazol-2-yl]-3-hydroxy-7-morpholin-4-yl-9-(2-oxo-oxazolidin-3-yl)-pyrido[1,2-a]pyrimidin-4-one]",–,–,–,–,–,–,–,–,–,0.001 to 0.1,0.001 to 0.1,0.001 to 0.1,0.1 to 1,0.001 to 0.1,0.001 to 0.1
"O=c1c(O)c(-c2ncc(Cc3ccc(F)cc3)s2)nc2c(N3CCCS3(=O)=O)cc(N3CCOCC3)cn12 [Example 105, 9-(1,1-Dioxo-1l6-isothiazolidin-2-yl)-2-[5-(4-fluoro-benzyl)-thiazol-2-yl]-3-hydroxy-7-morpholin-4-yl-pyrido[1,2-a]pyrimidin-4-one]",–,–,–,–,–,–,–,–,–,0.1 to 1,0.001 to 0.1,0.001 to 0.1,0.1 to 1,0.001 to 0.1,0.001 to 0.1
